Laboratory results: PubChem BioAssay (NCI)
Where “and” joins values, the source holds several entries; their conditions need not be identical. Equal entries are not always repeated.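 These data come from cells grown in 96-well plates and exposed to compound for 48 hours at five concentrations. Here, GI50 denotes the concentration required for 50% inhibition of growth. TGI marks complete inhibition of growth.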

Experiments:
Assay in all cases: DTP human tumour cell line panel, 48 h
U251 CNS = tested on: U251 CNS
OVCAR-8 ovarian = tested on: OVCAR-8 ovarian
HL-60(TB) leukemia = tested on: HL-60(TB) leukemia
K-562 leukemia = tested on: K-562 leukemia
NCI-H460 lung = tested on: NCI-H460 lung
SF-268 CNS = tested on: SF-268 CNS
NCI-H522 lung = tested on: NCI-H522 lung
MDA-MB-231 breast = tested on: MDA-MB-231 breast
UACC-257 melanoma = tested on: UACC-257 melanoma
SK-OV-3 ovarian = tested on: SK-OV-3 ovarian

SMILES	GI50 (U251 CNS) [µM]	TGI (U251 CNS) [µM]	GI50 (OVCAR-8 ovarian) [µM]	TGI (OVCAR-8 ovarian) [µM]	GI50 (HL-60(TB) leukemia) [µM]	TGI (HL-60(TB) leukemia) [µM]	GI50 (K-562 leukemia)	TGI (K-562 leukemia) [µM]	GI50 (NCI-H460 lung) [µM]	TGI (NCI-H460 lung) [µM]	GI50 (SF-268 CNS) [µM]	TGI (SF-268 CNS) [µM]	GI50 (NCI-H522 lung) [µM]	TGI (NCI-H522 lung)	GI50 (MDA-MB-231 breast) [µM]	TGI (MDA-MB-231 breast) [µM]	GI50 (UACC-257 melanoma) [µM]	TGI (UACC-257 melanoma) [µM]	GI50 (SK-OV-3 ovarian) [µM]	TGI (SK-OV-3 ovarian) [µM]
O=c1[nH]c2ccccc2n1-c1n[nH]c2ccccc12	31.3	> 100	35.3	> 100	12.1	43.2	31.3 µM	> 100	19.4	93.5	25.1	> 100	19.7	48.7 µM	22.9	> 100	42.1	> 100	73	> 100
O=C(Nc1ccccc1C(=O)N/N=C(\c1ccccc1)c1ccccn1)c1ccc(F)cc1	0.297	> 100	0.31	> 100	0.297	2.01	0.519 µM	> 100	0.105	4.19	0.364	> 100	0.393	> 28.6 µM	0.705	> 100	0.793	> 100	0.354	> 20.9
CC(=O)Oc1ccc(/C=N/NC(N)=S)nc1	4.17	> 100	2.85	> 100	1.74	8.44	6 µM	> 100	9.36	> 100	1.91	8.59	2.61	> 100 µM	11.2	> 100	14.2	57.7	17.8	> 100
Oc1ccc(Cl)cc1Cc1cc(Cl)ccc1O	2.32	11.6	2.63	8.97	2.42	6.05	3.3 µM	13.7	3	10.7	2.81	11.3	1.92	5.32 µM	1.65	5.01	1.87	5.39	2.81	10.9
Cc1cc(Cl)ccc1NS(=O)(=O)c1ccc(-c2cnc(C3CC3)o2)cc1	0.384	15.7	0.427	15.2	0.202	2.89	0.0723 µM	> 100	0.37	12.4	2.98	23	0.251	4.34 µM	0.94	20	3.85	25.8	4.32	26.2
CC1=C(C(=O)Nc2ccc(Cl)c(Cl)c2)C(c2ccccc2O)NC(=O)N1 (stereo unspecified)	> 50	> 50	24.8	> 50	> 50	> 50	26 µM	> 50	> 50	> 50	46.9	> 50	> 50	> 50 µM	28	> 50	> 50	> 50	> 50	> 50
COc1cc(/C=C(\C#N)C(N)=C(C#N)C#N)cc(O)c1O	–	> 100	–	> 100	–	> 81.5	–	> 100	–	> 100	–	> 100	–	> 100 µM	–	> 100	–	> 100	–	> 100
COc1cnc2cc(C(=O)O)c3ccccc3c2c1	–	> 100	–	> 100	–	> 100	–	> 100	–	> 100	–	> 100	–	> 100 µM	–	> 100	–	> 100	–	> 100
COc1cccc(/C=C/C(=O)c2cc3c(N)c(C(=O)Nc4cccc5ccccc45)sc3nc2C)c1	0.97	2.06	1.23	4.08	1.06	2.61	0.562 µM	> 50	1.22	3.45	1.89	> 50	0.435	3.06 µM	1.22	3.26	1.48	10.6	2.24	> 50
COc1ccc(CCN2CCc3c(C)c(C#N)c4nc5ccccc5n4c32)cc1OC	–	> 100	–	> 100	–	> 100	–	55.7	–	> 100	–	> 100	–	57 µM	–	86.1	–	> 100	–	> 100
CC1COCC(C)N1C1=C(Cl)C(=O)c2ccccc2C1=O (stereo unspecified)	11.6	25.7	3.73	13.6	2.02	5.03	2.81 µM	12	15.8	33.6	7.85	21.1	1.59	3.02 µM	2.46	11	1.6	3.08	17.9	31.8
C=[CH][Sn]([CH]=C)([O]c1cccc2cccnc12)[O]c1cccc2cccnc12	2.58	6.67	3.76	18.2	0.619	2.91	2.73 µM	> 24.9	3.11	9.01	5.12	29.9	0.93	3.36 µM	11.9	36.9	2.36	7.66	14.5	44.8
O=c1c2ccccc2oc2ccc(OCCCCCCN3CCCCCC3)cc12	3.28	11.5	4.66	17.9	1.84	3.97	1.96 µM	4.6	3.46	11.3	4.35	20	2.82	11.5 µM	4.19	13	2.52	5.28	2.77	8.29
O=C(NCCCCCCCNC(=O)OCc1ccc2c(Cl)cc(Cl)c(O)c2n1)OCc1ccc2c(Cl)cc(Cl)c(O)c2n1	1.6	3.09	0.395	1.83	0.47	1.97	0.319 µM	4.41	1.4	3.51	1.28	2.78	0.303	1.15 µM	1.13	2.45	1.21	2.6	3.93	14
COc1ccc(CCc2cc(OC)c(OC)c(OC)c2)cc1	–	2.73	–	32.2	–	0.296	–	13.7	–	9.82	–	19.6	–	0.115 µM	–	15.7	–	47.7	–	> 32.2
Nc1ccc2c(c1)c(N)nn2C(=O)Nc1ccc(Cc2ccccc2)cc1	6.53	20.9	20.2	> 100	3.46	17.2	2.24 µM	11.4	4.64	23.8	13	30.7	14.7	39.6 µM	7.74	22.7	14.5	29.7	15.3	37.7
COc1cc([N+](=O)[O-])c2ncccc2c1[N+](=O)[O-]	4.45	16.6	4.33	15.9	3.39	> 100	3.97 µM	> 100	6.07	24.6	3.72	15.3	1.13	2.62 µM	11.6	24.8	13.5	31.2	12.6	25.4
CCOc1cc(-c2ccc[nH]2)[nH]c1/C=C1\N=C(C)C(C(=O)OC)=C1C	0.0319	0.814	0.0329	1.4	0.0235	1.69	–	–	0.0256	1.32	0.0526	1.81	0.0561	0.318 µM	0.0171	0.279	0.0551	0.939	0.183	1.57
CSc1ccc(C(=O)C(=O)c2ccc(SC)s2)s1	–	> 10	–	> 10	–	> 10	–	> 10	–	> 10	–	> 10	–	> 10 µM	–	> 10	–	> 10	–	> 10
CCOP(=O)(OCC)C(C)(CC)NC(=O)C(C(F)(F)F)C(F)(F)F (stereo unspecified)	–	> 100	–	> 100	25.8	64.6	18.6 µM and 39.1 µM	> 100	–	> 100	–	> 100	–	–	> 100	> 100	–	> 100	–	> 100
CC(=O)Oc1ccc2c(c1)CC[C@@H]1C2CC[C@]2(C)C(=O)NC(=O)CC12 (stereo partly specified)	–	> 100	–	> 100	–	> 100	–	> 100	–	> 100	–	> 100	–	> 100 µM	–	> 100	–	> 100	–	> 100
Nc1[nH]c(=O)ncc1CO	> 100	> 100	> 100	> 100	> 100	> 100	> 100 µM	> 100	> 100	> 100	> 100	> 100	> 100	> 100 µM	> 100	> 100	> 100	> 100	> 100	> 100
COc1cccc(C2NC(=S)NC(C)=C2C(=O)Nc2ccc(Cl)c(Cl)c2)c1 (stereo unspecified)	> 50	> 50	12.4	23.9	> 50	> 50	16.3 µM	> 50	8.21	16.3	9.13	18.7	18.3	> 50 µM	9.41	19.6	12.4	28.9	21.3	> 50
CC(=O)N(Cc1ccccc1)c1ccccc1I(=O)=O	34.5	> 100	48.3	> 100	14.9	50.8	14 µM	29.5	22.8	58.5	16.2	48.9	22.4	> 100 µM	50.4	> 100	> 100	> 100	81.1	> 100
COC(=O)c1c(C)nc(C)c(NO)c1-c1ccccc1C(F)(F)F	–	> 100	–	33.2	–	> 100	–	> 100	–	> 100	–	> 100	–	33.1 µM	–	27.9	–	42.8	–	> 100
Nc1ccc(S(=O)(=O)Nc2cnc3c(Cl)cccc3n2)cc1	68	> 750	40.1	> 750	> 75	637	36.4 µM	> 750	> 77.9	> 750	–	704	15.2	75 µM and 259 µM	78.1	> 750	> 89.3	> 750	–	163
Cc1cc(C(O)CN(C)C)cc2c1ccc1cc(C(C)C)ccc12 (stereo unspecified)	1.92	3.53	–	–	1.89	4.08	2.15 µM	4.88	1.74	3.43	2.8	7.73	1.84	3.72 µM	1.64	3.55	2.11	3.79	4.58	20
N=C1C=C(N)C(=O)c2[nH]c(=O)ccc21	–	3.6	–	–	–	4.87	–	4.4	–	6.95	–	3.59	–	3.54 µM	–	3.46	–	16.6	–	26.7
CO[C@@]12[C@@H]3NC3CN1C1=C(C(=O)C(N)=C(C)C1=O)[C@@H]2COC(N)=O (stereo partly specified)	–	–	–	–	0.0862	7.43	0.965 µM	> 100	–	1.44	–	–	0.325	2.13 µM	8.95	> 54.8	–	2.14	–	5.33
